According to patent US10442807B2, “Aryl substituted bicyclic compounds as herbicides” (FMC Corporation, priority 2015, dated 2019):

How the values were obtained:
Format in all cases: in vivo
[1] = system: barnyardgrass (Echinochloa crus-galli); test: Test A preemergence, directed soil spray, visual injury rating; details: approx. 10 d, 0 = no effect, 100 = complete control
Text: (§1) Seeds of plant species selected from barnyardgrass (Echinochloa crus-galli), kochia (Kochia scoparia), ragweed (common ragweed, Ambrosia elation), ryegrass, Italian (Italian ryegrass, Lolium multiflorum), foxtail, giant (giant foxtail, Setaria faberii), and pigweed (Amaranthus retroflexus), were planted into a blend of loam soil and sand and treated preemergence with a directed soil spray using test chemicals formulated in a non-phytotoxic solvent mixture which included a surfactant. At the same time, plants selected from these weed species and also blackgrass (Alopecurus myosuroides), galium (catchweed bedstraw, Galium aparine), wheat (Triticum aestivum), and corn (Zea mays) were planted in pots containing the same blend of loam soil and sand and treated with postemergence applications of test chemicals formulated in the same manner. Plants ranged in height from 2 to 10 cm and were in the one- to two-leaf stage for the postemergence treatment. Treated plants and untreated controls were maintained in a greenhouse for approximately 10 d, after which time all treated plants were compared to untreated controls and visually evaluated for injury. Plant response ratings, summarized in Table A, are based on a 0 to 100 scale where 0 is no effect and 100 is complete control. A dash (-) response means no test result.

[2] = system: foxtail, giant (giant foxtail, Setaria faberii); test: as above; details: approx. 10 d, 0 = no effect, 100 = complete control
Text: as §1

kochia (Kochia scoparia) [3] = test: as above; details: approx. 10 d, 0 = no effect, 100 = complete control
Text: as §1

[4] = system: pigweed (Amaranthus retroflexus); test: as above; details: approx. 10 d, 0 = no effect, 100 = complete control
Text: as §1

[5] = system: ragweed (common ragweed, Ambrosia elation); test: as above; details: approx. 10 d, 0 = no effect, 100 = complete control
Text: as §1

[6] = system: ryegrass, Italian (Italian ryegrass, Lolium multiflorum); test: as above; details: approx. 10 d, 0 = no effect, 100 = complete control
Text: as §1

[7] = system: barnyardgrass (Echinochloa crus-galli); test: Test A postemergence application, visual injury rating; details: approx. 10 d, 0 = no effect, 100 = complete control
Text: as §1

[8] = system: blackgrass (Alopecurus myosuroides); test: as above; details: approx. 10 d, 0 = no effect, 100 = complete control
Text: as §1

corn (Zea mays) = test: as above; details: approx. 10 d, 0 = no effect, 100 = complete control
Text: as §1

[9] = system: foxtail, giant (giant foxtail, Setaria faberii); test: as above; details: approx. 10 d, 0 = no effect, 100 = complete control
Text: as §1

[10] = system: galium (catchweed bedstraw, Galium aparine); test: as above; details: approx. 10 d, 0 = no effect, 100 = complete control
Text: as §1

kochia (Kochia scoparia) [11] = test: as above; details: approx. 10 d, 0 = no effect, 100 = complete control
Text: as §1

[12] = system: pigweed (Amaranthus retroflexus); test: as above; details: approx. 10 d, 0 = no effect, 100 = complete control
Text: as §1

[13] = system: ragweed (common ragweed, Ambrosia elation); test: as above; details: approx. 10 d, 0 = no effect, 100 = complete control
Text: as §1

[14] = system: ryegrass, Italian (Italian ryegrass, Lolium multiflorum); test: as above; details: approx. 10 d, 0 = no effect, 100 = complete control
Text: as §1

[15] = system: wheat (Triticum aestivum); test: as above; details: approx. 10 d, 0 = no effect, 100 = complete control
Text: as §1

[16] = system: barnyardgrass (Echinochloa crus-galli); test: Test B flooded paddy test, visual plant response rating; details: applied to paddy water at 2-leaf stage, rated after 13 to 15 days, scale 0 to 100, 0 is no effect, 100 is complete control
Text: (§2) At time of treatment, test pots were flooded to 3 cm above the soil surface, treated by application of test compounds directly to the paddy water, and then maintained at that water depth for the duration of the test. Treated plants and controls were maintained in a greenhouse for 13 to 15 days, after which time all species were compared to controls and visually evaluated. Plant response ratings, summarized in Table B, are based on a scale of 0 to 100 where 0 is no effect and 100 is complete control. A dash (-) response means no test result.

[17] = system: ducksalad (Heteranthera limosa); test: as above; details: applied to paddy water at 2-leaf stage, rated after 13 to 15 days, scale 0 to 100, 0 is no effect, 100 is complete control
Text: as §2

rice (Oryza sativa) = test: as above; details: applied to paddy water at 2-leaf stage, rated after 13 to 15 days, scale 0 to 100, 0 is no effect, 100 is complete control
Text: as §2

[18] = system: sedge, umbrella (small-flower umbrella sedge, Cyperus difformis); test: as above; details: applied to paddy water at 2-leaf stage, rated after 13 to 15 days, scale 0 to 100, 0 is no effect, 100 is complete control
Text: as §2

Row | SMILES | Barnyardgrass plant response rating (0 to 100 scale) ([1]; 125 g ai/ha) | Barnyardgrass plant response rating (0 to 100 scale) ([1]; 500 g ai/ha) | Foxtail, Giant plant response rating (0 to 100 scale) ([2]; 125 g ai/ha) | Foxtail, Giant plant response rating (0 to 100 scale) ([2]; 500 g ai/ha) | Kochia plant response rating (0 to 100 scale) (kochia (Kochia scoparia) [3]; 125 g ai/ha) | Kochia plant response rating (0 to 100 scale) (kochia (Kochia scoparia) [3]; 500 g ai/ha) | Pigweed plant response rating (0 to 100 scale) ([4]; 125 g ai/ha) | Pigweed plant response rating (0 to 100 scale) ([4]; 500 g ai/ha) | Ragweed plant response rating (0 to 100 scale) ([5]; 125 g ai/ha) | Ragweed plant response rating (0 to 100 scale) ([5]; 500 g ai/ha) | Ryegrass, Italian plant response rating (0 to 100 scale) ([6]; 125 g ai/ha) | Ryegrass, Italian plant response rating (0 to 100 scale) ([6]; 500 g ai/ha) | Barnyardgrass plant response rating (0 to 100 scale) ([7]; 125 g ai/ha) | Barnyardgrass plant response rating (0 to 100 scale) ([7]; 500 g ai/ha) | Blackgrass plant response rating (0 to 100 scale) ([8]; 125 g ai/ha) | Blackgrass plant response rating (0 to 100 scale) ([8]; 500 g ai/ha) | Corn plant response rating (0 to 100 scale) (corn (Zea mays); 125 g ai/ha) | Corn plant response rating (0 to 100 scale) (corn (Zea mays); 500 g ai/ha) | Foxtail, Giant plant response rating (0 to 100 scale) ([9]; 125 g ai/ha) | Foxtail, Giant plant response rating (0 to 100 scale) ([9]; 500 g ai/ha) | also measured
1 | O=C(Nc1ccccc1F)C1c2nccn2CC1c1cccc(C(F)(F)F)c1 (stereo not drawn) [Compound 4] | 20 | 90 | 60 | 90 | 0 | 0 | 0 | 0 | 0 | 0 | 0 | 0 | 20 | 60 | 20 | 40 | 0 | 0 | 20 | 70 | Galium plant response rating (0 to 100 scale) ([10]; 125 g ai/ha): 0; Galium plant response rating (0 to 100 scale) ([10]; 500 g ai/ha): 0; Kochia plant response rating (0 to 100 scale) (kochia (Kochia scoparia) [11]; 125 g ai/ha): 0; Kochia plant response rating (0 to 100 scale) (kochia (Kochia scoparia) [11]; 500 g ai/ha): 0; Pigweed plant response rating (0 to 100 scale) ([12]; 125 g ai/ha): 0; Pigweed plant response rating (0 to 100 scale) ([12]; 500 g ai/ha): 0; Ragweed plant response rating (0 to 100 scale) ([13]; 125 g ai/ha): 0; Ragweed plant response rating (0 to 100 scale) ([13]; 500 g ai/ha): 0; Ryegrass, Italian plant response rating (0 to 100 scale) ([14]; 125 g ai/ha): 0; Ryegrass, Italian plant response rating (0 to 100 scale) ([14]; 500 g ai/ha): 0; Wheat plant response rating (0 to 100 scale) ([15]; 125 g ai/ha): 0; Wheat plant response rating (0 to 100 scale) ([15]; 500 g ai/ha): 20; Plant response rating, Flood, Barnyardgrass ([16]; 500 g ai/ha): 0; Plant response rating, Flood, Ducksalad ([17]; 500 g ai/ha): 0; Plant response rating, Flood, Rice (rice (Oryza sativa); 500 g ai/ha): 0; Plant response rating, Flood, Sedge, Umbrella ([18]; 500 g ai/ha): 0
2 | CCc1ccc(C2Cn3c(C)nnc3C2C(=O)Nc2ccccc2SC)cc1 (stereo not drawn) [Compound 15] | 0 | 0 | 0 | 0 | 0 | 0 | 0 | 0 | 0 | 0 | 0 | 0 | 0 | 0 | 0 | 0 | 0 | 0 | 0 | 0 | Galium plant response rating (0 to 100 scale) ([10]; 125 g ai/ha): 0; Galium plant response rating (0 to 100 scale) ([10]; 500 g ai/ha): 0; Kochia plant response rating (0 to 100 scale) (kochia (Kochia scoparia) [11]; 125 g ai/ha): 0; Kochia plant response rating (0 to 100 scale) (kochia (Kochia scoparia) [11]; 500 g ai/ha): 0; Pigweed plant response rating (0 to 100 scale) ([12]; 125 g ai/ha): 0; Pigweed plant response rating (0 to 100 scale) ([12]; 500 g ai/ha): 0; Ragweed plant response rating (0 to 100 scale) ([13]; 125 g ai/ha): 0; Ragweed plant response rating (0 to 100 scale) ([13]; 500 g ai/ha): 0; Ryegrass, Italian plant response rating (0 to 100 scale) ([14]; 125 g ai/ha): 0; Ryegrass, Italian plant response rating (0 to 100 scale) ([14]; 500 g ai/ha): 0; Wheat plant response rating (0 to 100 scale) ([15]; 125 g ai/ha): 0; Wheat plant response rating (0 to 100 scale) ([15]; 500 g ai/ha): 0; Plant response rating, Flood, Barnyardgrass ([16]; 250 g ai/ha): 0; Plant response rating, Flood, Ducksalad ([17]; 250 g ai/ha): 50; Plant response rating, Flood, Rice (rice (Oryza sativa); 250 g ai/ha): 20; Plant response rating, Flood, Sedge, Umbrella ([18]; 250 g ai/ha): 0
